Assay [1] has as its target T1, rifamycin-resistant Escherichia coli RNAP derivative ([Asn516]β-RNAP) (Escherichia coli, UniProt P0A8V2, D516N).
T1 construct: made in house
The experiment in a line: Fluorescence-detected RNA polymerase assay, rifamycin-resistant RNAP derivative. The class given is biochemical. On the procedure:
(§1) Fluorescence-detected RNA polymerase assays with E. coli RNA polymerase were performed by a modification of the procedure of Kuhlman et al., 2004 [Kuhlman, P., Duff, H. and Galant, A. (2004) A fluorescence-based assay for multisubunit DNA-dependent RNA polymerases. Anal. Biochem. 324, 183-190]. Reaction mixtures contained (20 μl): 0-100 nM test compound, 75 nM Escherichia coli RNA polymerase σ^70 holoenzyme or Escherichia coli RNA polymerase σ^70 holoenzyme derivative (prepared as in Feklistov, A., Mekler, V., Jiang, Q., Westblade, L., Irschik, H., Jansen, R., Mustaev, A., Darst, S., and Ebright, R. (2008) Proc. Natl. Acad. Sci. USA 105, 14820-14825), 20 nM 384 bp DNA fragment containing the bacteriophage […] N25 promoter, 100 μM ATP, 100 μM GTP, 100 μM UTP, 100 μM CTP, 50 mM Tris-HCl, pH 8.0, 100 mM KCl, 10 mM MgCl2, 1 mM DTT, 10 μg/ml bovine serum albumin, and 5.5% glycerol. Reaction components other than DNA and NTPs were pre-incubated for 10 min at 37° C. Reactions were carried out by addition of DNA and incubation for 5 min at 37° C., followed by addition of NTPs and incubation for 60 min at 37° C. DNA was removed by addition of 1 μl 5 mM CaCl2 and 2 U DNaseI (Ambion, Inc.), followed by incubation for 90 min at 37° C. RNA was quantified by addition of 100 μl RiboGreen RNA Quantitation Reagent (Invitrogen, Inc.; 1:500 dilution in Tris-HCl, pH 8.0, 1 mM EDTA), followed by incubation for 10 min at 25° C., followed by measurement of fluorescence intensity [excitation wavelength=485 nm and emission wavelength=535 nm; QuantaMaster QM1 spectrofluorimeter (PTI, Inc.)]. IC50 is defined as the concentration of inhibitor resulting in 50% inhibition of RNA polymerase activity.

The target in assay [2] is T2, GE23077-resistant Escherichia coli RNAP derivative ([Asp565]β-RNAP) (Escherichia coli, UniProt P0A8V2, E565D).
T2 construct: made in house
Briefly: biochemical. How it is done:
as §1, with “Reactions were carried out by addition of DNA and incubation for 5 min at 37° C., followed by addition of NTPs and incubation for 60 min at 37° C. DNA was removed by addition of 1 μl 5 mM CaCl2 and 2 U DNaseI (Ambion, Inc.), followed by incubation for 90 min at 37° C.” left out, “IC50 is defined as the concentration of inhibitor resulting in 50% inhibition of RNA polymerase activity.” left out

Assay [3] concerns Staphylococcus aureus ATCC 12600. The experiment in a line: Broth microdilution MIC, S. aureus. The class given is cell-based. The note with it: ATCC12600. The text has this:
(§2) Minimum inhibitory concentrations (MICs) for Staphylococcus aureus ATCC 12600, Enterococcus faecalis ATCC 19433, Acinetobacter baumannii ATCC 19606, and Escherichia coli D21f2tolc (Fralick, J. and Burns-Keliher, L. (1994) J. Bacteriol. 176, 6404-6406) were quantified using broth microdilution assays as described [Clinical and Laboratory Standards Institute (CLSI/NCCLS) (2009) Methods for Dilution Antimicrobial Susceptibility Tests for Bacteria That Grow Aerobically; Approved Standard, Eighth Edition. CM Document M07-A8 (CLIS, Wayne Pa.)].
On the technique in general: Dilution methods test growth across graded concentrations, often in twofold steps.

Assay [4] concerns Enterococcus faecalis ATCC 19433. Briefly: Broth microdilution MIC, E. faecalis. Format: cell-based. The conditions noted are these: ATCC19433.
Source text: as §2

Assay [5] concerns Acinetobacter baumannii ATCC 19606. The experiment in a line: Broth microdilution MIC, A. baumannii. Format: cell-based. The note with it: ATCC19606.
Source text: as §2

Assay [6] deals with Escherichia coli D21f2tolC. The experiment in a line: Broth microdilution MIC, E. coli D21f2tolC. Format: cell-based.
Source text: as §2

As a reminder, the IC50 is the point on the concentration scale where inhibition reaches its midpoint. As usually defined, the MIC is the least concentration at which growth counts as inhibited. A high value points to a need for much substance.

Converted amounts (≈) assume the structure as drawn. Like-named read-outs stand apart in the source and are kept apart here. A value given as a limit tells only on which side of the number the result lay.

As to `CO[C@H]1/C=C/O[C@@]2(C)Oc3c(C)c(O)c4c(O)c(c(NC(C)C(C)C(=O)NCC5NC(=O)CNC(=O)C(O)CNC(=O)C(C(C)O)NC(=O)C(C(O)C(O)C(N)=O)NC(=O)C(C(C)C)CC(=O)C(CO)NC5=O)c(O)c4c3C2=O)NC(=O)/C(C)=C\C=C\[C@H](C)C(O)C(C)[C@@H](O)[C@@H](C)[C@H](OC(C)=O)[C@@H]1C` (stereo partly drawn) [compound 3, {rifamycin SV}-NH-{descarboxy-GE23077}], the IC50 in assay [1] came out at 150 nM; in assay [2], 20 nM. In addition, the “potency relative to rifamycin SV on [Asn516]β RNAP” value in assay [1] (ratio of IC50s, times higher than rifamycin SV) was found to be 80 times. For the same compound, in assay [2] (ratio of IC50s, times higher than GE23077), the “potency relative to GE23077 on [Asp565]β RNAP” value is given as > 5,000 times. Moreover, the MIC came to 0.05 µg/mL (≈ 0.034 µM) in assay [3], 6 µg/mL (≈ 4.08 µM) in assay [4], 10 µg/mL (≈ 6.8 µM) in assay [5] and 2 µg/mL (≈ 1.36 µM) in assay [6].

Consider `CO[C@H]1/C=C/O[C@@]2(C)Oc3c(C)c(O)c4c(O)c(cc(O)c4c3C2=O)NC(=O)/C(C)=C\C=C\[C@H](C)[C@H](O)[C@@H](C)[C@@H](O)[C@@H](C)[C@H](OC(C)=O)[C@@H]1C` [rifamycin SV, reference compound], for which, in assay [1] (read-out: IC50, rifamycin-resistant derivative of Escherichia coli RNAP [Asn516]β RNAP), the IC50 was 12000 nM.

Values taken from US10010619B2, “Bipartite inhibitors of bacterial RNA polymerase” (priority 2011, dated 2018).
